Values of other authors, collected in patent US20160045465A1, “THERAPEUTIC FORMULATIONS FOR THE TREATMENT OF COLD AND FLU-LIKE SYMPTOMS” (Kingsway Pharmaceuticals Inc., priority 2007, published 2016).
Counter-ions that a name gives are not always drawn. Like-named read-outs stand apart in the source and are kept apart here.

How the values were obtained:
[1] = not given; remark: listed apart in the source
[2] = in vivo
[3] = children, ibuprofen suspension, oral
[4] = oral, 30 mg as tablets or oral solution

CC(=O)Nc1ccc(O)cc1 [acetaminophen, N-(4-hydroxyphenyl)ethanamide]
fraction in the body undergoing conjugation (glucuronic acid, sulphuric acid) (in vivo): 80-85% | plasma half-life (in vivo): 1.2 to 3.0 h | time to peak plasma concentrations (oral administration of immediate release acetaminophen preparations): 0.167 to 1 h

CC(C)Cc1ccc(C(C)C(=O)O)cc1 (centres unmarked) [ibuprofen, 2-[4-(2-methylpropyl)phenyl]propanoic acid]
time to reach maximal plasma concentration (conventional tablets): approximately 120 minutes | time until excretion is essentially complete (following oral administration): ≤ 24 h | fraction of an oral dose absorbed from the GI tract (in vivo, po): Approximately 80% | reduction of peak plasma concentrations when administered with food (with food): 30-50% | change of time to achieve peak plasma concentrations when administered with food (with food, given as 'reduced by'): 30 to 60 min | onset of antipyretic effect (fever; [3]): ≤ 1 h | time of peak antipyretic effect (fever; [3]): 2 to 4 h | duration of antipyretic effect (fever; single ibuprofen suspension doses of 10-mg/kg): up to 8 hours

CNC[C@H](O)c1cccc(O)c1 [phenylephrine hydrochloride]
pKa [1]: 8.86

CNC[C@H](O)c1cccc(O)c1 [phenylephrine]
elimination half-life (in vivo): 2 to 3 h | bioavailability following oral administration (oral): approximately 38% | time of peak serum concentrations (oral): 0.75 to 2.0 h | efficacy compared with pseudoephedrine [2]: less efficacious than pseudoephedrine | duration of nasal decongestion (nasal congestion; oral phenylephrine): 2 to 4 h | onset of nasal decongestion (nasal congestion; oral phenylephrine): 15 to 20 min

CN[C@@H](C)[C@@H](O)c1ccccc1 [pseudoephedrine hydrochloride]
duration of nasal decongestion (nasal congestion; 120 mg in extended-release capsules): up to 12 hours | duration of nasal decongestion (nasal congestion; oral administration of 60 mg): 8 h | duration of nasal decongestion (nasal congestion; [4]): 4 to 6 h | onset of nasal decongestion (nasal congestion; [4]): ≤ 30 min

CN[C@@H](C)[C@@H](O)c1ccccc1 [pseudoephedrine]
time to peak plasma concentrations (60-mg dose as an oral solution): 1.39 to 2.0 h | time to peak plasma concentrations (120-mg dose as an oral solution): 1.84 to 1.97 h | time to peak plasma concentrations (extended-release products): 3.8 to 6.1 h | fraction of a dose excreted unchanged in urine (in vivo): 55-96% | elimination half-life (urinary pH 5): 3 to 6 h | elimination half-life (urinary pH 5.8): 5 to 8 h | elimination half-life (urinary pH 8): 9 to 16 h
